Results published in patent US7208512B2, “Benzodifuranimidazoline and benzofuranimidazoline derivatives and their use for the treatment of glaucoma” (Alcon, Inc., priority 2001, dated 2007).
pEC50, pIC50: −log10 of the molar value.

Legend:
5-HT2 receptor [1] = biological target: T1, 5-HT2 receptor (Rattus norvegicus, UniProt P14842); experiment: 5-HT2 functional assay: phosphoinositide (PI) turnover in A7r5 rat vascular smooth muscle cells; assay type: cell-based; parameters: A7r5 rat vascular smooth muscle cells; endogenous in cells; host or cells: A7r5 rat vascular smooth muscle cells; conditions: [3H]-IPs production in A7r5 cells
T1 sequence (P14842 whole entry): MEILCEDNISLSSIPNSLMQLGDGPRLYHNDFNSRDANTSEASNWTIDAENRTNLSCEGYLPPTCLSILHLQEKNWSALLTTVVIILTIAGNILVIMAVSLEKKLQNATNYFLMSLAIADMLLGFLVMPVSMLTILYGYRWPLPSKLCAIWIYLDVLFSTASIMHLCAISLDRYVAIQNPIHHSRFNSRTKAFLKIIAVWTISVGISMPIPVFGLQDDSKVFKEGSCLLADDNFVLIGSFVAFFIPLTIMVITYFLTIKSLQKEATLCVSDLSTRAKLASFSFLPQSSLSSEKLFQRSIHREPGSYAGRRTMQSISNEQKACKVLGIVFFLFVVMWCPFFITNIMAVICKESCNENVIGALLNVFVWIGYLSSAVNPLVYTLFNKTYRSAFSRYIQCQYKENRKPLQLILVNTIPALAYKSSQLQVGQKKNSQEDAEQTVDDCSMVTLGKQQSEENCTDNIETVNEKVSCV
Method: The relative agonist activity of serotonergic compounds at the 5-HT2 receptor can be determined in vitro using the ability of the compounds to stimulate the production of [^3H]inositol phosphates in [^3H]myo-inositol-labeled A7r5 rat vascular smooth muscle cells by their ability to activate the enzyme phospholipase C. These cells are grown in culture plates, maintained in a humidified atmosphere of 5% CO2 and 95% air and fed semi-weekly with Dulbecco's modified Eagle medium (DMEM) containing 4.5 g/l glucose and supplemented with 2 mM glutamine, 10 μg/ml gentamicin, and 10% fetal bovine serum. […] Confluent cells are exposed for 24–30 hrs to 1.5 μCi [^3H]-myo-inositol (18.3 Ci/mmol) in 0.5 ml of serum-free medium. Cells are then rinsed once with DMEM/F-12 containing 10 mM LiCl prior to incubation with the test agent (or solvent as the control) in 1.0 ml of the same medium for 1 hr at 37° C., after which the medium is aspirated and 1 ml of cold 0.1 M formic acid added to stop the reaction. […] The eluate (4 ml) is collected, mixed with 15 ml scintillation fluid, and the total [^3H]-IPs determined by scintillation counting on a beta-counter. Concentration-response data are analyzed by the sigmoidal fit function of the Origin Scientific Graphics software (Microcal Software, Northampton, Mass.) to determine agonist potency (EC50 value) and efficacy (Emax). […]

5-HT2 receptor [2] = biological target: T1, 5-HT2 receptor; experiment: 5-HT2 receptor binding assay ([125I]DOI competition, rat cerebral cortex homogenates)
Method: Aliquots of post mortem rat cerebral cortex homogenates (400 μl) dispersed in 50 mM TrisHCl buffer (pH 7.4) are incubated with [^125I]DOI (80 pM final) in the absence or presence of methiothepin (10 μM final) to define total and non-specific binding, respectively, in a total volume of 0.5 ml. The assay mixture is incubated for 1 hour at 23° C. in polypropylene tubes and the assays terminated by rapid vacuum filtration over Whatman GF/B glass fiber filters previously soaked in 0.3% polyethyleneimine using ice-cold buffer. Test compounds (at different concentrations) are substituted for methiothepin. Filter-bound radioactivity is determined by scintillation spectrometry on a beta counter. The data are analyzed using a non-linear, iterative curve-fitting computer program (Bowen et al. 1995) to determine the compound affinity parameter.

Question: With `COc1cc(C[C@@H](C)N)c(OC)cc1I` [(R)-DOI, reference compound] as the molecule, how does the pEC50 (5-HT2 receptor [1]) read?
Answer: 6.56

Question: And the pIC50 (5-HT2 receptor [2])?
Answer: 9.34
